Data from patent publication EP0364581A1, “METHOD OF STERILIZING PLANT POLLEN” (VSESOJUZNY NAUCHNO-ISSLEDOVATELSKY INST. SELSKOKHOZYAISTV. …, priority 1988, dated 1989).

How the values were obtained:
Experiment in all cases: field test of gametocidal activity (sterilisation of anthers)
Assay type in all cases: in vivo
[1] = system: Sommerweizen Moskovskaya 35; settings: V. Periode, 1%ige wäßrige Emulsion, 10 kg/ha; for Prozentsatz des Ansetzens der freier Bestäubung: control = 100
Source text: (§1) Die gametozide Aktivität der erfindungsgemäßen Sterilisationsmittel war in Feldversuch in verschiedenen bodenklimatischen Zonen mit Teilstücken von 10 m^2 Größe in drei-- bis viermaliger Wiederholung nachgewiesen. Jedes Sterilisationsmittel wurde mindestens 5 Jahre lang geprüft.
(§2) Die Entwicklung der Perioden der Organogenese wird zytologisch überwacht. Die Behandlung von Pflanzen mit dem Sterilisationsmittel erfolgt am Anfang der fünften Periode der Organogenese nach Kupermann.
(§3) Mit dem Ahrenschieben verwirklicht man die Isolierung von Hauptähren und anderen Stockwerken in Pergamentbeuteln. Bei Weizen und Tritikale werden Einzelisolatoren verwendet. Bei Roggen schließt man je 1 Ähre von 5 bis 7 verschiedenen nebeneinander befindlichen Pflanzen in einen gemeinsamen Isolator ein. Bei Hirse wird jede Rispe getrennt isoliert. Der Sterilitätsprozentsatz (X) für Weizen, Roggen, Tritikale und Hirse wird nach der Formel [formula]
(§4) Samen von unbehandelten Kontrollpflanzen ermittelt.
(§5) Die Kornzahl in nicht isolierten Ähren von Kontrollpflanzen wird bedingt für 100% Ansetzen bei freier Bestäubung angenommen.
(§6) Um zuverlässige Angaben zu erhalten, verwendet man 20 bis 25 Isolatoren jeder Wiederholung für Weizen und Tritikale, 10 bis 15 Isolatoren jeder Wiederholung für Roggen und Hirse.
Pflanzen des Sommerweizens Sorte Moskovskaya 35 werden in der V. Periode der Organogenese (nach Kupermann) mit einer 1%igen wäßrigen Emulsion von Kaliumsalz der 2-Methyl-3-zyklohexenkarbonsäure,2-Methyl-3-zyklohexenkarbon- äthylester, Phthalsäuredipropylester, Phthalsäurediallylester, Phthalsäurediisobutylester, Kaliumsalz der Benzoesäure behandelt. Die Emulsion enthält 0,01 Masse% Dimethylsulfoxid und 0,1 Masse% C12-C14-Kalziumalkylbenzolsulfonat. Der Verbrauch an Präparat beträgt 10 kg/ha. Als Kontrolle dienen Pflanzen, behandelt mit einem Verdünner ohne Sterilisationsmittel. […]
In allen Fällen dienen als Kontrolle Pflanzen, behandelt mit einem Verdünner ohne Sterilisationsmittel. Die Prüfergebnisse sind in der Tabelle 20 angeführt. […] Periode der Organogenese erhalten.

[2] = system: tetraploidem Roggen Sorte Belta; settings: V. Periode, 1%ige wäßrige Emulsion, 6 kg/ha; for Prozentsatz des Ansetzens bei freier Bestäubung: control = 100
Source text: as §1, §2, §3, §4, §5, §6
Pflanzen von tetraploidem Roggen Sorte Belta werden in der V. Periode der Organogenese (nach Kupermann) mit einer 1%igen wäßrigen Emulsion von Kaliumsalz der 2-Methyl-3-zy- klohexenkarbonsäure, 2-Methyl-3-zyklohexenkarbonsäuremethyl- ester, Phthalsäuredibutylester, Phthalsäuredihexylester, Phthalsäuredipropylester, Phthalsäurediallylester, Phthalsäurediisobutylester, Kaliumsalz der […] behandelt. Die Emulsion enthält 0,01 Masse% Dimethylsuloxid und 0,1 Masse% C12-C14-Kalziumalkylbenzolsulfonat. Der Verbrauch an Präparat beträgt 6 kg/ha. Als Kontrolle dienen Pflanzen behandelt mit einem Verdünner ohne Sterilisationsmittel.

[3] = system: diploidem Roggen Sorte Gibrid 1861/79; settings: V. Periode, 1%ige wäßrige Emulsion, 6 kg/ha; for Prozentsatz des Ansetzens der Körner bei freier Bestäubung: control = 100
Source text: as §1, §2, §3, §4, §5, §6
Pflanzen von diploidem Roggen Sorte Gibrid 1861/79 werden in der V. Periode der Organogenese (nach Kupermann) mit einer 1%igen wäßrigen Emulsion von Phthalsäurediisobutylester, Kaliumsalz der 2-Methyl-3-zyklohexenkarbonsäure, 2--Methyl-3-zyklohexenkarbonsäuremethylester, Ammoniumsalz der 2-Methyl-3-zyklohexenkarbonsäure, Phthalsäurediallylester, Phthalsäuredihexylester, Ammoniumsalz der p-Hydroxybenzoesäure behandelt. Die Emulsion enthält 0,01 Masse% Dimethylsulfoxid und 0,1 Masse% C12-C14-Kalziumalkylbenzolsulfonat. Der Verbrauch an Präparat beträgt 6 kg/ha. Als Kontrolle dienen Pflanzen, behandelt mit einem Verdünner ohne Sterilisationsmittel.

[4] = system: Hirse Sorte Mironovskoe 94; settings: V. Periode, 1%ige wäßrige Emulsion, 10 kg/ha; for Prozentsatz des Ansetzens der Körner bei freier Bestäubung: control = 100
Source text: as §1, §2, §3, §4, §5, §6
Pflanzen der Hirse Sorte Mironovskoe 94 werden in der V. Periode der Organogenese (nach Kupermann) mit einer l%igen wäßrigen Emulsion von Kaliumsalz der 2-Methyl-3-zyklohexen- karbonsäure, 2-Methyl-3-zyklohexenkarbonsäuremethylester, Phthalsäuredihexylester, Phthalsäuredibutylester, Phthalsäuredipropylester, Natriumsalz der p-Hydroxybenzoesäure, Phthalsäurediäthylester, Phthalsäurediallylester behandelt. Die Emulsion enthält 0,01 Masse% Dimethylformamid und 0,1 Masse% C12-C14-Kalziumalkylbenzolsulfonat. Der Verbrauch an Präparat beträgt 10 kg/ha. Als Kontrolle dienen Pflanzen, behandelt mit einem Verdünner ohne Sterilisationsmittel. Die Prüfergebnisse sind in der Tabelle 17 angeführt. […] Periode der Organogenese erhalten.

In the case of `CC1C=CCCC1C(=O)[O-].[K+]` (stereo not shown) [Beispiel 23, Kaliumsalz der 2-Methyl-3-zyklohexenkarbonsäure], the “Kornzahl der Ähre bei freier Bestäubung” value [1] is reported as 30,8, the “Kornzahl der Ähre im Isolator” value [1] is reported as 0,0 and the “Prozentsatz der Sterilität” value [1] is reported as 100,0%. For the same compound, the “Prozentsatz des Ansetzens der freier Bestäubung” value [1] was 92,8%.

For `CCOC(=O)C1CCC=CC1C` (stereo not shown) [Beispiel 24, 2-Methyl-3-zyklohexenkarbon-äthylester], the “Kornzahl der Ähre bei freier Bestäubung” value [1] was 29,6, the “Kornzahl der Ähre im Isolator” value [1] was 0,0 and the “Prozentsatz der Sterilität” value [1] was 100,0%. For the same compound, the “Prozentsatz des Ansetzens der freier Bestäubung” value [1] was 89,2%.

In the case of `CCCOC(=O)c1ccccc1C(=O)OCCC` [Beispiel 26, Phthalsäuredipropylester], the “Kornzahl der Ähre bei freier Bestäubung” value [1] is reported as 28,6, the “Kornzahl der Ähre im Isolator” value [1] is reported as 1,2 and the “Prozentsatz der Sterilität” value [1] is reported as 95,6%. For the same compound, the “Prozentsatz des Ansetzens der freier Bestäubung” value [1] was 86,1%.

`C=CCOC(=O)c1ccccc1C(=O)OCC=C` [Beispiel 27, Phthalsäurediallylester] was tested, and the “Kornzahl der Ähre bei freier Bestäubung” value [1] was 31,1, the “Kornzahl der Ähre im Isolator” value [1] was 0,3 and the “Prozentsatz der Sterilität” value [1] was 98,9%. The “Prozentsatz des Ansetzens der freier Bestäubung” value [1] was 94,0%.

With `CC(C)COC(=O)c1ccccc1C(=O)OCC(C)C` [Beispiel 28, Phthalsäurediisobutylester] the “Kornzahl der Ähre bei freier Bestäubung” value [1] was 31,8, the “Kornzahl der Ähre im Isolator” value [1] was 0,0 and the “Prozentsatz der Sterilität” value [1] was 100,0%. For the same compound, the “Prozentsatz des Ansetzens der freier Bestäubung” value [1] was 95,8%.

`O=C([O-])c1ccccc1.[K+]` [Beispiel 29, Kaliumsalz der Benzoesäure] was tested, and the “Kornzahl der Ähre bei freier Bestäubung” value [1] was 33,0, the “Kornzahl der Ähre im Isolator” value [1] was 7,2 and the “Prozentsatz der Sterilität” value [1] was 73,8%. The “Prozentsatz des Ansetzens der freier Bestäubung” value [1] was 99,4%.

`CC1C=CCCC1C(=O)O` (stereo not shown) [Beispiel 48, Kaliumsalz der 2-Methyl-3-zy-klohexenkarbonsäure] was tested, and the “Kornzahl der Ähre bei freier Bestäubung” value [2] was 45,6, the “Kornzahl der Ähre im Isolator” value [2] was 0,1 and the “Prozentsatz der Sterilität” value [2] was 99,8%. The “Prozentsatz des Ansetzens bei freier Bestäubung” value [2] was 96,8%.

In the case of `COC(=O)C1CCC=CC1C` (stereo not shown) [Beispiel 49, 2-Methyl-3-zyklohexenkarbonsäuremethyl-ester], the “Kornzahl der Ähre bei freier Bestäubung” value [2] is reported as 44,2, the “Kornzahl der Ähre im Isolator” value [2] is reported as 0,0 and the “Prozentsatz der Sterilität” value [2] is reported as 100,0%. For the same compound, the “Prozentsatz des Ansetzens bei freier Bestäubung” value [2] was 93,8%.

For `CCCCOC(=O)c1ccccc1C(=O)OCCCC` [Beispiel 50, Phthalsäuredibutylester], the “Kornzahl der Ähre bei freier Bestäubung” value [2] was 43,1, the “Kornzahl der Ähre im Isolator” value [2] was 0,0 and the “Prozentsatz der Sterilität” value [2] was 100,0%. The “Prozentsatz des Ansetzens bei freier Bestäubung” value [2] was 91,5%.

With `CCCCCCOC(=O)c1ccccc1C(=O)OCCCCCC` [Beispiel 51, Phthalsäuredihexylester] the “Kornzahl der Ähre bei freier Bestäubung” value [2] was 45,9, the “Kornzahl der Ähre im Isolator” value [2] was 0,2 and the “Prozentsatz der Sterilität” value [2] was 99,5%. For the same compound, the “Prozentsatz des Ansetzens bei freier Bestäubung” value [2] was 97,4%.

`CCCOC(=O)c1ccccc1C(=O)OCCC` [Beispiel 52, Phthalsäuredipropylester] was tested, and the “Kornzahl der Ähre bei freier Bestäubung” value [2] was 40,8, the “Kornzahl der Ähre im Isolator” value [2] was 0,0 and the “Prozentsatz der Sterilität” value [2] was 100,0%. The “Prozentsatz des Ansetzens bei freier Bestäubung” value [2] was 86,6%.

With `C=CCOC(=O)c1ccccc1C(=O)OCC=C` [Beispiel 53, Phthalsäurediallylester] the “Kornzahl der Ähre bei freier Bestäubung” value [2] was 41,6, the “Kornzahl der Ähre im Isolator” value [2] was 0,3 and the “Prozentsatz der Sterilität” value [2] was 99,7%. For the same compound, the “Prozentsatz des Ansetzens bei freier Bestäubung” value [2] was 88,3%.

With `CC(C)COC(=O)c1ccccc1C(=O)OCC(C)C` [Beispiel 54, Phthalsäurediisobutylester] the “Kornzahl der Ähre bei freier Bestäubung” value [2] was 40,4, the “Kornzahl der Ähre im Isolator” value [2] was 0,0 and the “Prozentsatz der Sterilität” value [2] was 100,0%. The “Prozentsatz des Ansetzens bei freier Bestäubung” value [2] was 85,8%.

With `CC(C)COC(=O)c1ccccc1C(=O)OCC(C)C` [Beispiel 82, Phthalsäurediisobutylester] the “Kornzahl der Ähre bei freier Bestäubung” value [3] was 57,1, the “Kornzahl der Ähre im Isolator” value [3] was 0,6 and the “Prozentsatz der Sterilität” value [3] was 98,9%. The “Prozentsatz des Ansetzens der Körner bei freier Bestäubung” value [3] was 90,9%.

With `CC1C=CCCC1C(=O)O` (stereo not shown) [Beispiel 83, Kaliumsalz der 2-Methyl-3-zyklohexenkarbonsäure] the “Kornzahl der Ähre bei freier Bestäubung” value [3] was 56,7, the “Kornzahl der Ähre im Isolator” value [3] was 0,2 and the “Prozentsatz der Sterilität” value [3] was 99,7%. The “Prozentsatz des Ansetzens der Körner bei freier Bestäubung” value [3] was 90,2%.

`COC(=O)C1CCC=CC1C` (stereo not shown) [Beispiel 84, 2--Methyl-3-zyklohexenkarbonsäuremethylester] was tested, and the “Kornzahl der Ähre bei freier Bestäubung” value [3] was 51,2, the “Kornzahl der Ähre im Isolator” value [3] was 0,0 and the “Prozentsatz der Sterilität” value [3] was 100,0%. The “Prozentsatz des Ansetzens der Körner bei freier Bestäubung” value [3] was 81,5%.

With `CC1C=CCCC1C(=O)O` (stereo not shown) [Beispiel 85, Ammoniumsalz der 2-Methyl-3-zyklohexenkarbonsäure] the “Kornzahl der Ähre bei freier Bestäubung” value [3] was 57,8, the “Kornzahl der Ähre im Isolator” value [3] was 0,0 and the “Prozentsatz der Sterilität” value [3] was 100,0%. The “Prozentsatz des Ansetzens der Körner bei freier Bestäubung” value [3] was 92,0%.

In the case of `C=CCOC(=O)c1ccccc1C(=O)OCC=C` [Beispiel 86, Phthalsäurediallylester], the “Kornzahl der Ähre bei freier Bestäubung” value [3] is reported as 59,6, the “Kornzahl der Ähre im Isolator” value [3] is reported as 0,0 and the “Prozentsatz der Sterilität” value [3] is reported as 100,0%. The “Prozentsatz des Ansetzens der Körner bei freier Bestäubung” value [3] was 95,0%.

With `CCCCCCOC(=O)c1ccccc1C(=O)OCCCCCC` [Beispiel 87, Phthalsäuredihexylester] the “Kornzahl der Ähre bei freier Bestäubung” value [3] was 56,4, the “Kornzahl der Ähre im Isolator” value [3] was 0,0 and the “Prozentsatz der Sterilität” value [3] was 100,0%. For the same compound, the “Prozentsatz des Ansetzens der Körner bei freier Bestäubung” value [3] was 89,8%.

`O=C(O)c1ccc(O)cc1` [Beispiel 88, Ammoniumsalz der p-Hydroxybenzoesäure] was tested, and the “Kornzahl der Ähre bei freier Bestäubung” value [3] was 68,9, the “Kornzahl der Ähre im Isolator” value [3] was 0,8 and the “Prozentsatz der Sterilität” value [3] was 98,5%. For the same compound, the “Prozentsatz des Ansetzens der Körner bei freier Bestäubung” value [3] was 109,7%.

For `CCOC(=O)c1ccccc1C(=O)OCC` [Beispiel 95, Phthalsäurediäthylester], the “Kornzahl der Rispe bei freier Bestäubung” value [4] was 352,5, the “Kornzahl der Rispe im Isolator” value [4] was 0,0 and the “Prozentsatz der Sterilität” value [4] was 100,0%. The “Prozentsatz des Ansetzens der Körner bei freier Bestäubung” value [4] was 92,6%.

For `C=CCOC(=O)c1ccccc1C(=O)OCC=C` [Beispiel 96, Phthalsäurediallylester], the “Kornzahl der Rispe bei freier Bestäubung” value [4] was 335,2, the “Kornzahl der Rispe im Isolator” value [4] was 0,0 and the “Prozentsatz der Sterilität” value [4] was 100,0%. For the same compound, the “Prozentsatz des Ansetzens der Körner bei freier Bestäubung” value [4] was 88,3%.
